Measured values from publication PMC9124820, “In vitro evaluation of fenfluramine and norfenfluramine as victims of drug interactions” (Pharmacology Research & Perspectives, 2022).
Structures can show the parent of a compound that is named as a salt.

What was measured:
BCRP = target: T1, BCRP (Homo sapiens, UniProt Q9UNQ0); conditions: cited from earlier work
T1 sequence (Q9UNQ0 1-655): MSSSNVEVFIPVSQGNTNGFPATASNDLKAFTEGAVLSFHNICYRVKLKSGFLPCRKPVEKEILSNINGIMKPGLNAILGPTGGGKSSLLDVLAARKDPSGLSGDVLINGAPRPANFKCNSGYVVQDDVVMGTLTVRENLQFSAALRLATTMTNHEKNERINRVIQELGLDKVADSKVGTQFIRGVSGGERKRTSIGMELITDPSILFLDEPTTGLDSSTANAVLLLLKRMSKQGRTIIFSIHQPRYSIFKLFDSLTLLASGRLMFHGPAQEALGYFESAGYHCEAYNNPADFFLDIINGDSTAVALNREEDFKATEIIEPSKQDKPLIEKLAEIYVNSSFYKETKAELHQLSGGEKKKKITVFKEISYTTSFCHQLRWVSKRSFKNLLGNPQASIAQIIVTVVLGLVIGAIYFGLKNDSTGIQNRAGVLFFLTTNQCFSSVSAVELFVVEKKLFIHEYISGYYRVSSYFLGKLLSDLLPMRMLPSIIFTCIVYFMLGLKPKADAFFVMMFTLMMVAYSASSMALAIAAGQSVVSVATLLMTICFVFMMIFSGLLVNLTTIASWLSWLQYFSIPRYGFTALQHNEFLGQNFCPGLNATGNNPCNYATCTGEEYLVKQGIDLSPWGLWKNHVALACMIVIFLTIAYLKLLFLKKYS

CYP2D6 = CYP2D6 (Homo sapiens, UniProt P10635); assay: in vitro; conditions: microsomes
CYP2D6, sequence (P10635 whole entry): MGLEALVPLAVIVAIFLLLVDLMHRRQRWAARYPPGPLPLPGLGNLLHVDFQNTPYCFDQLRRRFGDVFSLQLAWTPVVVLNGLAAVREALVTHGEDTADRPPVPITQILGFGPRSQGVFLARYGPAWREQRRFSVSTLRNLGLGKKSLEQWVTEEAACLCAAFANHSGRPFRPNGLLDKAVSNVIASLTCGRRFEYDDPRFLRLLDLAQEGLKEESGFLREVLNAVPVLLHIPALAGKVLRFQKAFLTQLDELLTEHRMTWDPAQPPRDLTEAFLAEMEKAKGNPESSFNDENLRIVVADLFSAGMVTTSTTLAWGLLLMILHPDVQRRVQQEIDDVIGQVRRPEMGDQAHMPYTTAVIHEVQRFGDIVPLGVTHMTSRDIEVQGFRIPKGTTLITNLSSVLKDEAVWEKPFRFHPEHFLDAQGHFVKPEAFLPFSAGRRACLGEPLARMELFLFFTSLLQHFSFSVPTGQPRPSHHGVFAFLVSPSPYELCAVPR
Description: (§1) To determine the metabolic role of individual CYP450 enzymes more quantitatively, FFA (1 μM) or nFFA (0.1 μM) was manually incubated in duplicate with human liver microsomes (1 mg protein/mL) for 60 min (FFA), or for 0 and 120 min (nFFA), in the presence of direct‐acting or metabolism‐dependent chemical inhibitors. […] Solvent controls were processed in parallel with each inhibitor. Under the conditions described above, incubations were conducted and reactions terminated at 0 or 120 min. Metabolite formation for chemical inhibitors was normalized over time to metabolite formation in the respective solvent controls for each inhibitor. Assays were conducted in duplicate due to the low biological and technical variability expected in this assay; statistical analysis was not possible with duplicate samples.

P‐gp = P‐gp (Homo sapiens, UniProt P08183); conditions: cited from earlier work
P‐gp, sequence (P08183 whole entry): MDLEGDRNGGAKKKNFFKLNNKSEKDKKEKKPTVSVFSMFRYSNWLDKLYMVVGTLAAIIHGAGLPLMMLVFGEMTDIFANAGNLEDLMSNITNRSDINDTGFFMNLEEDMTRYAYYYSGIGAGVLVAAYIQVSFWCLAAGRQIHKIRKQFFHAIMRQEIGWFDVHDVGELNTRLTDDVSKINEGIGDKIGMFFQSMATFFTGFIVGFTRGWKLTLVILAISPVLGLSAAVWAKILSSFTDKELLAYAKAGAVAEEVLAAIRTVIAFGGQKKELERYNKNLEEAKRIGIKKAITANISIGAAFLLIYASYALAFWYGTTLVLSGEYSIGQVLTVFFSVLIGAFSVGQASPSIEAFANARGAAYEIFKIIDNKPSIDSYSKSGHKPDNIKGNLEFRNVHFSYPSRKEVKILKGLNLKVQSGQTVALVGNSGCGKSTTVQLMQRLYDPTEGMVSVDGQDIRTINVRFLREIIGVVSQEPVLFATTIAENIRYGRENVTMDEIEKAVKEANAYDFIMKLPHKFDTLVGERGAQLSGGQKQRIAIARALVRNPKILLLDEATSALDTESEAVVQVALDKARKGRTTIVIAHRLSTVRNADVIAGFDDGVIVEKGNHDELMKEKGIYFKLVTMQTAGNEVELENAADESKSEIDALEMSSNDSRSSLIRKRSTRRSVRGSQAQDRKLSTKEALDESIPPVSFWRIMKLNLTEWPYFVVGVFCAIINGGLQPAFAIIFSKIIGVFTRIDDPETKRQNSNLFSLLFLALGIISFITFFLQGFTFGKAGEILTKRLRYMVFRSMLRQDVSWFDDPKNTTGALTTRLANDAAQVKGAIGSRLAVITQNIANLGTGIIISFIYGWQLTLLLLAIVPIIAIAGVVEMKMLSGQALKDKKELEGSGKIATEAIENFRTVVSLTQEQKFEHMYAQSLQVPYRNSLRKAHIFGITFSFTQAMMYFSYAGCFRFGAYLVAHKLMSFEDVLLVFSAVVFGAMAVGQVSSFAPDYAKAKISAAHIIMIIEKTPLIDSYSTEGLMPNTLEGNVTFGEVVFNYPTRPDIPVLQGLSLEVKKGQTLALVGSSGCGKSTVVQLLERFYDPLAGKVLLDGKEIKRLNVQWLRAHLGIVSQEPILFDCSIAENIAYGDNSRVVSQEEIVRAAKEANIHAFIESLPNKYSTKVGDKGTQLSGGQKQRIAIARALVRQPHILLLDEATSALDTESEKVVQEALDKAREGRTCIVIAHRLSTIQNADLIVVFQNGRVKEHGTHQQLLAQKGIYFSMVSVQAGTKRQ

CYP2C9 = target: T2, CYP2C9 (Homo sapiens, UniProt P11712); assay: Chemical inhibition of FFA metabolism in human liver microsomes, CYP2C9; assay type: in vitro ADME; conditions: inhibitor 20 µM, metabolism-dependent
T2 construct: manually incubated in duplicate with human liver microsomes (1 mg protein/mL); tissue Sekisui XenoTech, LLC; host or cells: pooled human liver microsomes (200 donors)
T2 sequence (P11712 whole entry): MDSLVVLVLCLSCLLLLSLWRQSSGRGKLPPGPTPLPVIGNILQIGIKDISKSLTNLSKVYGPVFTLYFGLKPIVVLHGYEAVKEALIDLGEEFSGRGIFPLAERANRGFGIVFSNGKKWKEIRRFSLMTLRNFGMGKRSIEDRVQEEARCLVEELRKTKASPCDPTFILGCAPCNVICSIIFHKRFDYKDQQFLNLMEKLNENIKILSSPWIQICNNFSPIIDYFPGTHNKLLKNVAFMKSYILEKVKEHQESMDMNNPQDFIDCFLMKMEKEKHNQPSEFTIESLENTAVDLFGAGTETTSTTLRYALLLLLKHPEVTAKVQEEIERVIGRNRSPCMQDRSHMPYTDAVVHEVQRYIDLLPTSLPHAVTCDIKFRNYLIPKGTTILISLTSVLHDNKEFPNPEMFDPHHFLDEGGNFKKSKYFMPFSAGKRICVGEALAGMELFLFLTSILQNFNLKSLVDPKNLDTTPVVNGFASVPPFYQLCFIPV
Description: as §1

[1] = Metabolic stability and metabolite identity, rat intestinal S9 fractions; assay type: in vitro ADME; conditions: FFA incubation, LC-MS/MS; X = identified
Description: LC‐MS/MS analyses to assess metabolic stability and identify the transporter substrate were performed using an API 4000 QTRAP mass spectrometer (SCIEX, Framingham, MA) with electrospray ionization in positive mode. Chromatography was performed using an Atlantis dC18 analytical column (100 × 2.1 mm, 5 µm; Waters Corporation, Milford, MA). Mobile phases were 0.2% v/v formic acid in water and 0.2% v/v formic acid in acetonitrile. For metabolic stability experiments, FFA and metabolites were eluted at a flow rate of 0.6 mL/min, with a linear gradient of 20%−80% acetonitrile from 0.30−2.0 min. For transporter substrate experiments, the gradient was slightly modified to achieve suitable chromatography. The mass transitions monitored were 232.0 > 159.0 for FFA and 348.0 > 330.0 for 1ʹ‐OH‐midazolam‐d4 internal standard. […]
FFA (1 or 10 µM) was incubated with liver and intestinal S9 fractions (2 mg protein/mL) at 37 ± 1°C in 0.2‐mL incubation mixtures containing potassium phosphate buffer (50 mM, pH 7.4), magnesium chloride (MgCl2) (3 mM), and EDTA (1 mM, pH 7.4), in the presence or absence of a three‐component cofactor mixture (NADPH‐generating system, uridine diphosphate glucuronic acid (UDPGA) [8 mM], and 3’‐phosphoadenosine 5’‐phosphosulfate [0.5 mM]). […] Supernatant fractions were analyzed by LC‐MS/MS.
To characterize substrate loss and metabolic stability, duplicate samples were analyzed by LC‐MS/MS to determine the change in substrate concentration over the incubation period. The rate constant of elimination (kel, min^−1) was determined from the time course of substrate loss based on single exponential decay (A(t)=A0(‐kelt)) . Half‐life in vitro was determined by the following equation: t1/2 = 0.693/kel. The in vitro intrinsic clearance (CLint) was calculated from the rate constant of elimination as follows: CLintμL/min/mgprotein=kelmin^‐1×incubationvolume(μL)/mgproteinperincubation.
Percent loss of substrate was determined by normalizing the mean analyte peak‐area ratio at each time point to the average of four replicates at the 0‐min time point (100%).

CYP3A4/5 = conditions: inhibitor 0.1, 0.5, 1 µM, direct-acting; FFA 1 μM, human liver microsomes
Description: as §1

CYP1A2 = target: T3, CYP1A2 (Homo sapiens, UniProt P05177); assay: Chemical inhibition of FFA metabolism in human liver microsomes, CYP1A2; assay type: in vitro ADME; conditions: probe FFA (1 µM), demethylation to nFFA, inhibitor 10 µM, metabolism-dependent, read-out: Reduction in FFA demethylation (percent inhibition by a selective inhibitor)
T3 construct: manually incubated in duplicate with human liver microsomes (1 mg protein/mL); tissue Sekisui XenoTech, LLC; host or cells: pooled human liver microsomes (200 donors)
T3 sequence (P05177 1-516): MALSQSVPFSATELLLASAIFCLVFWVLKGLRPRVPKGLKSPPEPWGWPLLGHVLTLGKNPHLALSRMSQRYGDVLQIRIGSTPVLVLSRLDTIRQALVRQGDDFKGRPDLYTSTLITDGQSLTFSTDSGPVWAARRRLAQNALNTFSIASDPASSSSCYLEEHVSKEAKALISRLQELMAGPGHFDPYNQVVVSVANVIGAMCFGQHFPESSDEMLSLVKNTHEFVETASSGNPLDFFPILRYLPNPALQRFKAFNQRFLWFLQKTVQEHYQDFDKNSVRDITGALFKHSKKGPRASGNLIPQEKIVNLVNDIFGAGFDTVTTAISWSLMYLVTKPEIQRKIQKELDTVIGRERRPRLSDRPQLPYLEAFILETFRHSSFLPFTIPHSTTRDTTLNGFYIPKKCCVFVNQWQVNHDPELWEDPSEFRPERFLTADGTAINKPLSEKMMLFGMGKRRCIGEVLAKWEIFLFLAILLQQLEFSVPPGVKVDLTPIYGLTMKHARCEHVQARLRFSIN
Description: as §1

CYP2B6 = target: T4, CYP2B6 (Homo sapiens, UniProt P20813); assay: Chemical inhibition of FFA metabolism in human liver microsomes, CYP2B6; assay type: in vitro ADME; conditions: probe FFA (1 µM), demethylation to nFFA, inhibitor 30 µM, metabolism-dependent, read-out: Reduction in FFA demethylation (percent inhibition by a selective inhibitor)
T4 construct: manually incubated in duplicate with human liver microsomes (1 mg protein/mL); tissue Sekisui XenoTech, LLC; host or cells: pooled human liver microsomes (200 donors)
T4 sequence (P20813 1-491): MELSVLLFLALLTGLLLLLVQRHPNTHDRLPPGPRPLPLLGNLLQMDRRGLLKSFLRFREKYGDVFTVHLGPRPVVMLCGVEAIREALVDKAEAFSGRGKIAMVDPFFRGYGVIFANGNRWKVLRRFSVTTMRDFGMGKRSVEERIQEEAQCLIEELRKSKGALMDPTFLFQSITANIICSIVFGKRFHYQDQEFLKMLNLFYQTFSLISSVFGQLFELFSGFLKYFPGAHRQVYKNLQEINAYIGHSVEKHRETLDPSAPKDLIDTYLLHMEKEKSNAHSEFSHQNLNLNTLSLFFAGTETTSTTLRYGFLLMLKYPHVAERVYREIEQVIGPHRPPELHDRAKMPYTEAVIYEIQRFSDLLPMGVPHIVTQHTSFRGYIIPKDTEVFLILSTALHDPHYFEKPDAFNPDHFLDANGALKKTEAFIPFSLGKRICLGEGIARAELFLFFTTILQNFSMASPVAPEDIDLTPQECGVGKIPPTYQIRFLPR
Description: as §1

CYP2C19 = CYP2C19 (Homo sapiens, UniProt P33261); assay: in vitro; conditions: microsomes
CYP2C19, sequence (P33261 whole entry): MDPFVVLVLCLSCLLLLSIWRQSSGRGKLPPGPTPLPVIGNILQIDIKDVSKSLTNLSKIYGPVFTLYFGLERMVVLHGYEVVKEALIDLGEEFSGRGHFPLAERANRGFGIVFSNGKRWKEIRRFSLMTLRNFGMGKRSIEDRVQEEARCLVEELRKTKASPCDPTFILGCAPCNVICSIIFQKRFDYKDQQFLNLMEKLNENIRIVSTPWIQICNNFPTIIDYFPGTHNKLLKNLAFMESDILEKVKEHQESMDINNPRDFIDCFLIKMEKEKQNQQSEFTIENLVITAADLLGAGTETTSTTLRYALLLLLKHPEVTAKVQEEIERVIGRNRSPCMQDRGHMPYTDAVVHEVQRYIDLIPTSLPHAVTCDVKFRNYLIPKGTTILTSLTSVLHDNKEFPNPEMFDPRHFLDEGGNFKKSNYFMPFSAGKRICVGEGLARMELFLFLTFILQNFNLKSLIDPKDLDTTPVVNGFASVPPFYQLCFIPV
Description: as §1

| Structure (SMILES) | substrate capacity for BCRP (BCRP) | substrate capacity for P‐gp (P‐gp) | other results |
| --- | --- | --- | --- |
| CCC1(c2ccccc2)C(=O)NC(=O)NC1=O [phenobarbital] | did not show substrate capacity | – | – |
| C=C[C@H]1C[N@@]2CC[C@H]1C[C@@H]2[C@@H](O)c1ccnc2ccc(OC)cc12 [Quinidine, quinidine] | – | – | inhibition at 60 min, 1 µM (CYP2D6): 37% |
| O=C1NC(=O)C(c2ccccc2)(c2ccccc2)N1 [phenytoin] | did not show substrate capacity | did not show substrate capacity | – |
| NC(=O)N1c2ccccc2C=Cc2ccccc21 [carbamazepine] | did not show substrate capacity | did not show substrate capacity | – |
| O=C(O)COc1ccc(C(=O)c2cccs2)c(Cl)c1Cl [Tienilic acid] | – | – | inhibition at 60 min, 20 µM (CYP2C9; human, liver microsomes, probe FFA (1 µM), demethylation to nFFA, read-out: Reduction in FFA demethylation (percent inhibition by a selective inhibitor)): < 15%; Reduction in FFA demethylation (percent inhibition by a selective inhibitor) (CYP2C9; FFA 1 μM): 14% |
| CC[C@@H](C(N)=O)N1CCCC1=O [levetiracetam] | did not show substrate capacity | did not show substrate capacity | – |
| CCCC(CCC)C(=O)O [valproate] | did not show substrate capacity | did not show substrate capacity | – |
| CC(Cc1cccc(C(F)(F)F)c1)NO (centres unmarked) [C2] | – | – | identified in Intestinal S9 fractions, Rat [1]: trace |
| CC(=O)N1CCN(c2ccc(OCC3COC(Cn4ccnc4)(c4ccc(Cl)cc4Cl)O3)cc2)CC1 (centres unmarked) [Ketoconazole, ketoconazole] | – | – | Reduction in FFA demethylation (percent inhibition by a selective inhibitor) (CYP3A4/5): None |
| Cc1nc2c([nH]1)c(=O)n(C)c(=O)n2Cc1ccco1 [Furafylline, furafylline] | – | – | inhibition at 60 min, 10 µM (CYP1A2): 32% |
| c1ccc(C2(N3CCCCC3)CCCCC2)cc1 [Phencyclidine, phencyclidine hydrochloride] | – | – | inhibition at 60 min, 30 µM (CYP2B6): 42% |
| CC1(C)O[C@@H]2[C@@H](CO[C@@]3(COS(N)(=O)=O)OC(C)(C)O[C@@H]23)O1 [topiramate] | did not show substrate capacity | did not show substrate capacity | – |
| COc1ccc2nc([S@@+]([O-])Cc3ncc(C)c(OC)c3C)[nH]c2c1 [Esomeprazole, esomeprazole] | – | – | Reduction in FFA demethylation (percent inhibition by a selective inhibitor) (CYP2C19; 60 min, 10 µM): 8%; inhibition at 60 min, 10 µM (CYP2C19; Reduction in FFA demethylation (percent inhibition by a selective inhibitor)): < 15% |
